Laboratory results from patent US8329706B2, “Oxazolidinone derivatives” (Actelion Pharmaceuticals Ltd., priority 2009, dated 2012).
pIC50: −log10 of the molar value.

Columns and labels:
[1] = biological target: T1, human orexin-2 receptor (Homo sapiens, UniProt O43614); assay: FLIPR intracellular calcium assay, orexin receptor antagonistic activity (OX2); format: cell-based; conditions: CHO cells expressing human orexin-2 receptor; agonist 3 nM orexin-A; normalized to on-plate reference; * geomean n = 5, *2 geomean n = 2
T1 construct: expressed in transfected cells; host or cells: CHO cells (G418 selection)
T1 sequence (O43614 1-444): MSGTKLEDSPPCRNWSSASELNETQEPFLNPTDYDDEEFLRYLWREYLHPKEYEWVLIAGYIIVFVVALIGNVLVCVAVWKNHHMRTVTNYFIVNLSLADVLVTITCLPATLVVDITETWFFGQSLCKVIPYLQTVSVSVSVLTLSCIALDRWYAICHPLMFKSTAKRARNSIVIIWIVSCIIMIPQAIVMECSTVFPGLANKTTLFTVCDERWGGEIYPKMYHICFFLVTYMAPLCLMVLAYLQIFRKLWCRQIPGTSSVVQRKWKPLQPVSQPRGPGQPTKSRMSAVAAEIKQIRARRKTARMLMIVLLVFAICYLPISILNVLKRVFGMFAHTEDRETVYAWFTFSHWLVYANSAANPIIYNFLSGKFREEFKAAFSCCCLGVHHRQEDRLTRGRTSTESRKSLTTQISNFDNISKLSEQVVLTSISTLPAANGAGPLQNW
Experimental: (§1) The orexin receptor antagonistic activity of the compounds of formula (I) is determined in accordance with the following experimental method.
(§2) Chinese hamster ovary (CHO) cells expressing the human orexin-1 receptor and the human orexin-2 receptor, respectively, are grown in culture medium (Ham F-12 with L-Glutamine) containing 300 μg/ml G418, 100 U/ml penicillin, 100 μg/ml streptomycin and 10% heat inactivated fetal calf serum (FCS). The cells are seeded at 20′000 cells/well into 384-well black clear bottom sterile plates (Greiner). The seeded plates are incubated overnight at 37° C. in 5% CO2.
(§3) Human orexin-A as an agonist is prepared as 1 mM stock solution in MeOH:water (1:1), diluted in HBSS containing 0.1% bovine serum albumin (BSA), NaHCO3: 0.375 g/l and 20 mM HEPES for use in the assay at a final concentration of 3 nM.
(§4) Antagonists are prepared as 10 mM stock solution in DMSO, then diluted in 384-well plates using DMSO followed by a transfer of the dilutions into in HBSS containing 0.1% bovine serum albumin (BSA), NaHCO3: 0.375 g/l and 20 mM HEPES. On the day of the assay, 50 μl of staining buffer (HBSS containing 1% FCS, 20 mM HEPES, NaHCO3: 0.375 g/l, 5 mM probenecid (Sigma) and 3 μM of the fluorescent calcium indicator fluo-4 AM (1 mM stock solution in DMSO, containing 10% pluronic) is added to each well. The 384-well cell-plates are incubated for 50 min at 37° C. in 5% CO2 followed by equilibration at rt for 30-120 min before measurement.
(§5) Within the Fluorescent Imaging Plate Reader (FLIPR Tetra, Molecular Devices), antagonists are added to the plate in a volume of 10 μl/well, incubated for 10 min and finally 10 μl/well of agonist is added. Fluorescence is measured for each well at 1 second intervals, and the height of each fluorescence peak is compared to the height of the fluorescence peak induced by 3 nM orexin-A with vehicle in place of antagonist. For each antagonist, the IC50 value (the concentration of compound needed to inhibit 50% of the agonistic response) is determined and normalized using the obtained IC50 value of a on-plate reference compound. Optimized conditions were achieved by adjustment of pipetting speed and cell splitting regime. The calculated IC50 values of the compounds may fluctuate depending on the daily cellular assay performance. Fluctuations of this kind are known to those skilled in the art.

[2] = biological target: T2, human orexin-1 receptor (Homo sapiens, UniProt O43613); assay: FLIPR intracellular calcium assay, orexin receptor antagonistic activity (OX1); format: cell-based; conditions: CHO cells expressing human orexin-1 receptor; agonist 3 nM orexin-A; normalized to on-plate reference; * geomean n = 5, *2 geomean n = 2
T2 construct: expressed in transfected cells; host or cells: CHO cells (G418 selection)
T2 sequence (O43613 1-425): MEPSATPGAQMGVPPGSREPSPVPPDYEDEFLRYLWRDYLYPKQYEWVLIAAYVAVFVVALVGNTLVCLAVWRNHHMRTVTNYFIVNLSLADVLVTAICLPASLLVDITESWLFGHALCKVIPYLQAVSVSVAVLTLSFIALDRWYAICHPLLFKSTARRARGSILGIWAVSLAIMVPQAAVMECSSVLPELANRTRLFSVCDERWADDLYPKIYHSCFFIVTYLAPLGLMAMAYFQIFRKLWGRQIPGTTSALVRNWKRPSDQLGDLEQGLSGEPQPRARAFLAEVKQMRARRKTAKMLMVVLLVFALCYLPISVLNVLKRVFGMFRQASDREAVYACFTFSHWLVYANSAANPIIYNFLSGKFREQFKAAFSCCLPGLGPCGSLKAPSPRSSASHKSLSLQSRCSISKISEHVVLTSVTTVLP
Experimental: as §1, §2, §3, §4, §5

SMILES | pIC50 [1] | pIC50 [2]
CCOc1ccccc1C1OCC(=O)N1Cc1ccccc1Cl (stereo not drawn) [Example 45, 3-(2-Chloro-benzyl)-2-(2-ethoxy-phenyl)-oxazolidin-4-one] | 6.06 | 5.76
CCOc1ccccc1C1OCC(=O)N1Cc1cccc(OC)c1 (stereo not drawn) [Example 4, 2-(2-Ethoxy-phenyl)-3-(3-methoxy-benzyl)-oxazolidin-4-one] | 6.15 | < 5.00
CCOc1ccccc1C1OCC(=O)N1Cc1ccc(Cl)cc1Cl (stereo not drawn) [Example 30, 3-(2,4-Dichloro-benzyl)-2-(2-ethoxy-phenyl)-oxazolidin-4-one] | 6.07 | 5.52
COc1cccc(OC)c1C1OC(C)(C)C(=O)N1Cc1ccc(Oc2ncccn2)cc1 (stereo not drawn) [Example 95, 2-(2,6-Dimethoxy-phenyl)-5,5-dimethyl-3-[4-(pyrimidin-2-yloxy)-benzyl]-oxazolidin-4-one] | 5.14 | 5.52
COc1cccc(OC)c1C1OC(C)(C)C(=O)N1Cc1nc2ccccc2o1 (stereo not drawn) [Example 68, 3-Benzooxazol-2-ylmethyl-2-(2,6-dimethoxy-phenyl)-5,5-dimethyl-oxazolidin-4-one] | 6.29 | 5.53
COc1cccc(OC)c1C1OC(C)(C)C(=O)N1Cc1ccc(Oc2ccccn2)cc1 (stereo not drawn) [Example 91, 2-(2,6-Dimethoxy-phenyl)-5,5-dimethyl-3-[4-(pyridin-2-yloxy)-benzyl]-oxazolidin-4-one] | 6.35 | 6.96
CCOc1ccccc1C1OCC(=O)N1Cc1ccc(C(F)(F)F)c(F)c1 (stereo not drawn) [Example 15, 2-(2-Ethoxy-phenyl)-3-(3-fluoro-4-trifluoromethyl-benzyl)-oxazolidin-4-one] | 6.44 | < 5.00
COc1cccc(OC)c1C1OC(C)(C)C(=O)N1Cc1ccc(SC(F)(F)F)cc1 (stereo not drawn) [Example 88, 2-(2,6-Dimethoxy-phenyl)-5,5-dimethyl-3-(4-trifluoromethylsulfanyl-benzyl)-oxazolidin-4-one] | 6.53 | 6.92
CCOc1ccccc1C1OCC(=O)N1Cc1ccc(F)c(F)c1 (stereo not drawn) [Example 26, 3-(3,4-Difluoro-benzyl)-2-(2-ethoxy-phenyl)-oxazolidin-4-one] | 6.19 | < 5.00
CCOc1ccccc1C1OCC(=O)N1Cc1ccc(Cl)c(C(F)(F)F)c1 (stereo not drawn) [Example 1, 3-(4-Chloro-3-trifluoromethyl-benzyl)-2-(2-ethoxy-phenyl)-oxazolidin-4-one] | 6.58 | 5.19
CCOc1ccc(CN2C(=O)[C@@H](C)O[C@@H]2c2c(OC)cccc2OC)cc1 [Example 79, 2-(2,6-Dimethoxy-phenyl)-3-(4-ethoxy-benzyl)-(r)-5-methyl-oxazolidin-4-one] | 6.06 | 6.08
CCOc1ccccc1C1OCC(=O)N1Cc1ccc(C(F)(F)F)cc1F (stereo not drawn) [Example 22, 2-(2-Ethoxy-phenyl)-3-(2-fluoro-4-trifluoromethyl-benzyl)-oxazolidin-4-one] | 6.08 | < 5.00

Molecules with a higher pIC50 [1], results first:

pIC50 [1] | pIC50 [2] | SMILES
7.06 | 6.04 | Cc1cccc(C)c1C1OC(C)(C)C(=O)N1Cc1ccc(OC(F)(F)F)c(Cl)c1 (stereo not drawn) [Example 81, 3-(3-Chloro-4-trifluoromethoxy-benzyl)-2-(2,6-dimethyl-phenyl)-5,5-dimethyl-oxazolidin-4-one]
6.82 | 5.67 | COc1cccc(OC)c1C1O[C@@H](C)C(=O)N1Cc1ccc(Oc2ccccc2)cc1 (stereo partly drawn) [Example 59, 2-(2,6-Dimethoxy-phenyl)-(S)-5-methyl-3-(4-phenoxy-benzyl)-oxazolidin-4-one]
6.63 | 6.38 | COc1cccc(OC)c1C1OC(C)(C)C(=O)N1Cc1ccc(Oc2ccccc2)cn1 (stereo not drawn) [Example 90, 2-(2,6-Dimethoxy-phenyl)-5,5-dimethyl-3-(5-phenoxy-pyridin-2-ylmethyl)-oxazolidin-4-one]
6.67 | 6.59 | COc1cccc(OC)c1C1O[C@H](C)C(=O)N1Cc1ccc(OC(F)(F)F)cc1 (stereo partly drawn) [Example 63, 2-(2,6-Dimethoxy-phenyl)-(R)-5-methyl-3-(4-trifluoromethoxy-benzyl)-oxazolidin-4-one]
7.02 | 5.92 | COc1cccc(OC)c1C1O[C@H](C)C(=O)N1Cc1ccc(OC(C)C)cc1 (stereo partly drawn) [Example 74, 2-(2,6-Dimethoxy-phenyl)-3-(4-isopropoxy-benzyl)-(R)-5-methyl-oxazolidin-4-one]
7.24 | 7.55 | COc1cccc(OC)c1C1OC(C)(C)C(=O)N1Cc1ccc(Oc2ccccc2)cc1 (stereo not drawn) [Example 50, 2-(2,6-Dimethoxy-phenyl)-5,5-dimethyl-3-(4-phenoxy-benzyl)-oxazolidin-4-one]
6.70 | < 5.00 | CCOc1ccccc1C1OCC(=O)N1Cc1ccc(F)cc1 (stereo not drawn) [Example 25, 2-(2-Ethoxy-phenyl)-3-(4-fluoro-benzyl)-oxazolidin-4-one]
6.61 | 5.20 | COc1cccc(OC)c1C1OCC(=O)N1Cc1ccc(OCC2CC2)cc1 (stereo not drawn) [Example 65, 3-(4-Cyclopropylmethoxy-benzyl)-2-(2,6-dimethoxy-phenyl)-oxazolidin-4-one]
7.34 | 6.38 | COc1cccc(F)c1C1OC(C)(C)C(=O)N1Cc1ccc(Oc2ccccc2)cc1 (stereo not drawn) [Example 84, 2-(2-Fluoro-6-methoxy-phenyl)-5,5-dimethyl-3-(4-phenoxy-benzyl)-oxazolidin-4-one]
7.59 | 5.06 | CCOc1ccccc1C1OCC(=O)N1Cc1ccc(OC(F)(F)F)c(Cl)c1 (stereo not drawn) [Example 18, 3-(3-Chloro-4-trifluoromethoxy-benzyl)-2-(2-ethoxy-phenyl)-oxazolidin-4-one]
6.65 | < 5.00 | COc1cccc(OC)c1C1OCC(=O)N1Cc1ccccc1OC(F)(F)F (stereo not drawn) [Example 33, 2-(2,6-Dimethoxy-phenyl)-3-(2-trifluoromethoxy-benzyl)-oxazolidin-4-one]
6.71 | 5.54 | COc1cccc(OC)c1C1O[C@H](C)C(=O)N1Cc1nc2ccccc2s1 (stereo partly drawn) [Example 62, 3-Benzothiazol-2-ylmethyl-2-(2,6-dimethoxy-phenyl)-(R)-5-methyl-oxazolidin-4-one]
6.97 | 6.75 | COc1cccc(OC)c1C1O[C@H](C)C(=O)N1Cc1ccc(OC(F)(F)F)c(F)c1 (stereo partly drawn) [Example 55, 2-(2,6-Dimethoxy-phenyl)-3-(3-fluoro-4-trifluoromethoxy-benzyl)-(R)-5-methyl-oxazolidin-4-one]
6.67 | 6.86 | COc1cccc(OC)c1C1OC(C)(C)C(=O)N1Cc1ccc(Oc2ccccc2)nc1 (stereo not drawn) [Example 89, 2-(2,6-Dimethoxy-phenyl)-5,5-dimethyl-3-(6-phenoxy-pyridin-3-ylmethyl)-oxazolidin-4-one]
7.19 | 7.33 | COc1cccc(OC)c1C1O[C@H](C)C(=O)N1Cc1ccc2ccccc2c1 (stereo partly drawn) [Example 53, 2-(2,6-Dimethoxy-phenyl)-(R)-5-methyl-3-naphthalen-2-ylmethyl-oxazolidin-4-one]
